These results are taken from patent publication US12201745B2, “Vascular extracellular matrix hydrogel” (University of Pittsburgh—Of the Commonwealth System of …, priority 2016, dated 2025).

The subject of assay [1] is chick chorioallantoic membrane (CAM). Kind of assay: Chick chorioallantoic membrane (CAM) model of in vivo angiogenesis. As to conditions: 100 nM PD173074 with 250 μg/mL pAdv ECM bioscaffold in fibrin scaffold. As for the experimental part: FIGS. 14A-14D. Effect of ECM bioscaffolds on angiogenesis in vivo. FIG. 14A) Representative bright field images of scaffolds before (Time 0) and after (72 hr) incubation on the chorioallantoic membrane (CAM) of the chick embryo. […] There was no appreciable angiogenic response detected around scaffolds loaded with digestion buffer (1% (w/v) pepsin in 0.1 N HCl) or DMSO. Addition of the FGF2 inhibitor PD173074 (100 nM) abrogated the angiogenic response to pAdv ECM. […] All scale bars for FIG. 14A=5 mm. FIG. 14B) Representative histological cross-sections of CAM assay scaffolds. The CAM vasculature was visualized using injected tomato lectin-Dylight® 650 (red) and nuclei are labeled with Hoechst dye (blue). A dashed white line denotes the scaffold/CAM interface. […] The maximum tested dose of pAdv ECM (500 μg/mL) inhibited invasion of blood vessels into the scaffold. […] All scale bars in FIG. 14B and FIG. 14C=[…] *Avascular zone comprised of lectin-negative cells. FIG. 14D). […] (*) avascular zone comprised of lectin-negative cells. All scale bars for FIG. 14D=20 μm.
Chick Chorioallantoic Membrane (CAM) Model of In Vivo Angiogenesis. […]

The subject of assay [2] is Primary human adventitia-derived endothelial cells. As to the kind of experiment: Endothelial cell branching assay (tube-like structures on GFR-Matrigel). The format is cell-based. As to conditions: 100 nM. As for the experimental part:
FIGS. 13A-13C. Effect of ECM bioscaffolds on network formation of tube-like structures in vitro. FIG. 13A—Human adventitia-derived endothelial cells were cultured on growth factor reduced-Matrigel substrates: (A) DMSO, 0.05% (v/v), (B) Digestion buffer (1% (w/v) Pepsin in 0.1 N HCl), (C) pAdv ECM, and (D) pSIS ECM. FGF2 inhibitor PD173074 (100 nM) was added to the culture medium of above treatments shown in parallel wells (E-H). A-H: One representative 10× field is shown, selected from one of three replicates of two independent experiments. All scale bars=50 μm for (A-H). Quantification of the number (FIG. 13B) and total length (FIG. 13C) of tube-like structures from 5×5 stitched fields captured at 10× for non-ECM-supplemented (open bars), pAdv (solid bars) and pSIS (gray bars) ECM-supplemented substrates in the absence and presence of PD173074. Bars represent mean of three assay replicates ±standard deviation. Images and graphs represent data from one of two independent experiments. *Significant from pepsin HCl, p<0.02; #Significant from pAdv ECM-treated cells in the absence of PD173074, p<0.03.
Endothelial Cell Branching Assay. […] Total number and length of tube-like structures were quantified using NIS Elements Software.

For `CCN(CC)CCCCNc1ncc2cc(-c3cc(OC)cc(OC)c3)c(NC(=O)NC(C)(C)C)nc2n1` [PD173074], the “effect on pAdv ECM bioscaffold-induced angiogenesis” value in assay [1] is given as “completely inhibited”. In assay [2] (Matrigel alone or pepsin HCl-supplemented substrates), the “effect on tube-like formation on non-ECM substrates” value was “did not affect tube-like formation”. The “effect on tube-like formation on ECM-supplemented substrates” value in assay [2] (pAdv and pSIS ECM bioscaffold-supplemented substrates vs absence of inhibitor) is “decreased the tube-like formation”.
